Source: patent US5834462A, “Tricyclic heterocyclic sulfonamide and sulfonic ester derivatives” (Eisai Co., Ltd., priority 1993, dated 1998)
≈ marks a conversion by molar mass, not a printed value.

Experiments:
[1] = system: M5076 (mouse reticulum cell sarcoma); test: in vivo antitumor test on M5076 transplanted in BDF1 mice; settings: intraperitoneal, 4 times every other day from 10th day
Excerpt: in vivo antitumor test on M5076 (mouse reticulum cell sarcoma)
1×10^6 M5076 cells were subcutaneously transplanted into the lateral parts of BDF1 mice (aged 6 to 9 weeks, female). A compound of the present invention was suspended in physiological saline containing 3.5% of dimethyl sulfoxide and 6.5% of Tween 80 and a given amount of the obtained suspension was intraperitoneally administered to the animals 4 times from the 10th day after the transplantation once a day every other day. The control group comprised 10 to 12 animals, while the test group comprised 5 or 6 animals.
On the 21st day after the transplantation, tumors were taken out and weighed. Then the tumor multiplication inhibitory ratio of each test group based on the control group was determined in accordance with the following equation. [formula] T: average tumor weight of the test group. C: average tumor weight of the control group.

[2] = system: KB cells (human nasopharyngeal cancer cells); test: in vitro Antitumor test on KB cells (MTT); type: cell-based; settings: 72 h, 3 days incubation
Description: in vitro Antitumor test on KB cells (human nasopharyngeal cancer cells)
KB cells suspended in an RPMI1640 medium (mfd. by Nissui Seiyaku K. K.), which contained 10% of fetal calf serum, 100 U/mi of penicillin, 100 μg/ml of streptomycin, 5×10^-5 M of mercaptoethanol and 1 mM of sodium pyruvate, were inoculated in 1.25×10^3 portions (0.1 ml) into wells of a 96-well flat-bottomed microplate and then incubated in an incubator containing 5% of carbon dioxide at 37° C. for a day.
A compound of the present invention was dissolved in dimethyl sulfoxide in a concentration of 20 mg/ml and diluted with a 10% fetal calf serum-RPMI1640 culture medium to a concentration of 100 μg/ml. By using this concentration as the highest level, threefold serial dilution was performed with a 10% fetal calf serum-RPMI1640 culture medium. Then it was added in 0.1 ml portions into the wells of the above-mentioned plate wherein the KB cells had been incubated followed by incubation in the incubator containing 5% of carbon dioxide at 37° C. for 3 days.
After incubating, an MTT (3-(4,5-dimethylthiazol-2-yl)-2,5-diphenyltetrazolium bromide) solution (3.3 mg/ml) was added in 0.05 ml portions into the wells and the incubation was effected for additional 1 hour. After sucking off the supernatant from each well, the formazane thus formed was dissolved in 0.1 ml of dimethyl sulfoxide. Then the absorbance at 540 nm was measured with a microplate reader and employed as an indication of the vital cell count. In accordance with the following equation, the inhibitory ratio was calculated and the 50% inhibitory concentration (IC50) of the test compound was determined. [formula] T: absorbance of a well containing the test commpound. C: absorbance of a well containing no test compound.

SMILES | Inhibitory ratio (tumor weight, 21st day) ([1]; 50 mg/kg/day) [%] | Survival ratio on 21st day ([1]; 50 mg/kg/day) [%] | IC50 [2] [µg/mL] | Inhibitory ratio (tumor weight, 21st day) ([1]; 100 mg/kg/day) [%] | Survival ratio on 21st day ([1]; 100 mg/kg/day) [%] | Inhibitory ratio (tumor weight, 21st day) ([1]; 25 mg/kg/day) [%] | Survival ratio on 21st day ([1]; 25 mg/kg/day) [%]
COc1ccc(S(=O)(=O)Nc2cccc3c2Nc2ccccc2S3)cc1 [Example 1, 4-Methoxy-N-(10H-phenothiazin-1-yl)benenesulfonamide] | 73 | 100 | 0.11 (≈ 0.286 µM) | – | – | – | –
COc1ccc(S(=O)(=O)Nc2cccc3c2Nc2ccccc2CO3)cc1 [Example 17, N-(5,11-Dihydrpdibenz(b,e)(1,4)oxazepin-6-yl)-4-methoxybenzenesulfonamide] | – | – | 0.03 (≈ 0.0784 µM) | 81 | 100 | – | –
COc1ccc(S(=O)(=O)Nc2cccc3c2Nc2cc(F)c(F)cc2S3)cc1 [Example 28, N-(7,8-Difluoro-10-pbenothiazin-1-yl)-4-methoxy-benenesulfonamide] | 82 | 100 | 0.069 (≈ 0.164 µM) | – | – | – | –
COc1ccc(S(=O)(=O)Nc2cccc3c2Nc2ccc(O)cc2CO3)cc1 [Example 30, N-(5,11-Dibydro-2-bydroxydihenz(b,e)(1,4)oxazepin-6-yl)-4-methoxybenzensulfonamide] | – | – | 0.028 (≈ 0.0703 µM) | 82 | 100 | – | –
COc1ccc(S(=O)(=O)Nc2cccc3c2Nc2ccc(F)cc2CN3)cc1 [Example 32, N-(10,11-Dihydro-2-fluoro-5dibenzo(b,e) (1,4)-diazepin-6-yl)-4-methoxybenzenesulfonamide] | – | – | 0.082 (≈ 0.205 µM) | – | – | 84 | 100
